Results published in ChEMBL document CHEMBL3632618, “The isolation and synthesis of a novel benzofuran compound from Tephrosia purpurea, and the synthesis of several related derivatives, which suppress histamine H1 receptor gene expression” (Bioorg Med Chem, 2015).

Tested on: HeLa; call rule not given here
Test: Downregulation of PMA-induced H1R mRNA expressed in human HeLa cells incubated for 1 hr prior to PMA stimulation by RT-PCR method
Type: functional, cell-based
[1] = Homo sapiens, HeLa, read-out: IC50

| Compound | IC50 (hela) | IC50 [1] | IC50 (hela, read-out: IC50) |
| --- | --- | --- | --- |
| COc1c(C(=O)O)ccc2occc12 | Not Active |  |  |
| COc1cc2occc2cc1C(=O)O | Not Active |  |  |
| NC(=O)c1cc2ccoc2cc1O |  | 84.6 µM |  |
| COc1cc2occc2cc1C(N)=O |  | 49.1 µM |  |

The next lines start with the values.

| IC50 (hela) | IC50 [1] | IC50 (hela, read-out: IC50) | Compound |
| --- | --- | --- | --- |
| Not Active |  |  | NC(=O)c1ccc2occc2c1O |
|  | 75.3 µM | 83.7 µM | COc1c(C(N)=O)ccc2occc12 |
